Data: ChEMBL document CHEMBL1135151, “Preparation, characterization, molecular modeling and in vitro activity of paclitaxel-cyclodextrin complexes” (2002)

What was measured:
Type in all cases: functional, Homo sapiens
DU-145 [1] = test: Tested for in vitro activity against DU 145 cells at PTX dilution factor 1:1000, expressed as percentage of cellular survival as a function of drug dilution
DU-145 [2] = test: Tested for in vitro activity against DU 145 cells at PTX dilution factor 1:50, expressed as percentage of cellular survival as a function of drug dilution
DU-145 [3] = test: Tested for in vitro activity against DU 145 cells at PTX dilution factor 1:100, expressed as percentage of cellular survival as a function of drug dilution
DU-145 [4] = test: Tested for in vitro activity against DU 145 cells at PTX dilution factor 1:500, expressed as percentage of cellular survival as a function of drug dilution

SMILES	Survival (DU-145 [1]) [%]	Survival (DU-145 [2]) [%]	Survival (DU-145 [3]) [%]	Survival (DU-145 [4]) [%]
COCC1O[C@H]2OC3C(COC)O[C@@H](OC4C(COC)O[C@@H](OC5C(COC)O[C@@H](OC6C(COC)O[C@@H](OC7C(COC)O[C@@H](OC8C(COC)O[C@@H](OC1[C@@H](O)[C@@H]2OC)[C@@H](OC)[C@H]8O)[C@@H](OC)[C@H]7O)[C@@H](O)[C@H]6OC)[C@@H](OC)[C@H]5O)[C@@H](OC)[C@H]4O)[C@@H](OC)[C@H]3O (stereo partly drawn)	91.5	88.9	90.6	90.2
COCC1O[C@H]2OC3C(COC)O[C@@H](OC4C(COC)O[C@@H](OC5C(COC)O[C@@H](OC6C(COC)O[C@@H](OC7C(COC)O[C@@H](OC8C(COC)O[C@@H](OC1[C@@H](OC)[C@@H]2OC)[C@@H](OC)[C@H]8OC)[C@@H](OC)[C@H]7OC)[C@@H](OC)[C@H]6OC)[C@@H](OC)[C@H]5OC)[C@@H](OC)[C@H]4OC)[C@@H](OC)[C@H]3OC (stereo partly drawn)	90.1	79.7	85.5	87
CC(=O)O[C@H]1C(=O)[C@@]2(C)C([C@H](OC(=O)c3ccccc3)[C@]3(O)C[C@H](OC(=O)[C@H](O)[C@@H](NC(=O)c4ccccc4)c4ccccc4)C(C)=C1C3(C)C)[C@]1(OC(C)=O)CO[C@@H]1C[C@@H]2O.OCC1O[C@H]2OC3C(CO)O[C@@H](OC4C(CO)O[C@@H](OC5C(CO)O[C@@H](OC6C(CO)O[C@@H](OC7C(CO)O[C@@H](OC8C(CO)O[C@@H](OC1[C@@H](O)[C@@H]2O)[C@@H](O)[C@H]8O)[C@@H](O)[C@H]7O)[C@@H](O)[C@H]6O)[C@@H](O)[C@H]5O)[C@@H](O)[C@H]4O)[C@@H](O)[C@H]3O (stereo partly drawn)	24.2	12.2	22.3	23.1
CC(=O)O[C@H]1C(=O)[C@@]2(C)C([C@H](OC(=O)c3ccccc3)[C@]3(O)C[C@H](OC(=O)[C@H](O)[C@@H](NC(=O)c4ccccc4)c4ccccc4)C(C)=C1C3(C)C)[C@]1(OC(C)=O)CO[C@@H]1C[C@@H]2O.COCC1O[C@H]2OC3C(COC)O[C@@H](OC4C(COC)O[C@@H](OC5C(COC)O[C@@H](OC6C(COC)O[C@@H](OC7C(COC)O[C@@H](OC8C(COC)O[C@@H](OC1[C@@H](O)[C@@H]2OC)[C@@H](OC)[C@H]8O)[C@@H](OC)[C@H]7O)[C@@H](O)[C@H]6OC)[C@@H](OC)[C@H]5O)[C@@H](OC)[C@H]4O)[C@@H](OC)[C@H]3O (stereo partly drawn)	61.3	35.2	46.3	51.1
CC(=O)O[C@H]1C(=O)[C@@]2(C)C([C@H](OC(=O)c3ccccc3)[C@]3(O)C[C@H](OC(=O)[C@H](O)[C@@H](NC(=O)c4ccccc4)c4ccccc4)C(C)=C1C3(C)C)[C@]1(OC(C)=O)CO[C@@H]1C[C@@H]2O.COCC1O[C@H]2OC3C(COC)O[C@@H](OC4C(COC)O[C@@H](OC5C(COC)O[C@@H](OC6C(COC)O[C@@H](OC7C(COC)O[C@@H](OC8C(COC)O[C@@H](OC1[C@@H](OC)[C@@H]2OC)[C@@H](OC)[C@H]8OC)[C@@H](OC)[C@H]7OC)[C@@H](OC)[C@H]6OC)[C@@H](OC)[C@H]5OC)[C@@H](OC)[C@H]4OC)[C@@H](OC)[C@H]3OC (stereo partly drawn)	69.3	43.2	61.3	68.7
OC[C@H]1O[C@@H]2O[C@H]3[C@H](O)[C@@H](O)[C@@H](O[C@H]4[C@H](O)[C@@H](O)[C@@H](O[C@H]5[C@H](O)[C@@H](O)[C@@H](O[C@H]6[C@H](O)[C@@H](O)[C@@H](O[C@H]7[C@H](O)[C@@H](O)[C@@H](O[C@H]8[C@H](O)[C@@H](O)[C@@H](O[C@H]1[C@H](O)[C@H]2O)O[C@@H]8CO)O[C@@H]7CO)O[C@@H]6CO)O[C@@H]5CO)O[C@@H]4CO)O[C@@H]3CO [BETADEX]	96.8	96.4	96.6	96.4
CC(=O)O[C@H]1C(=O)[C@@]2(C)[C@H]([C@H](OC(=O)c3ccccc3)[C@]3(O)C[C@H](OC(=O)[C@H](O)[C@@H](NC(=O)c4ccccc4)c4ccccc4)C(C)=C1C3(C)C)[C@]1(OC(C)=O)CO[C@@H]1C[C@@H]2O [PACLITAXEL]	46	11.6	12.1	43.3
